Test results taken from BindingDB's records for doi:10.1021/jm970389+ (Abbott Laboratories, 1998).

assay: Binding potency against Platelet activating factor (PAF) receptor using [3H]C18-PAF as radioligand on rabbit platelet membranes

Q: For `COC(=O)c1cccc2c1c(C(=O)c1ccc(Cn3c(C)nc4cnccc43)cc1)cn2C(N)=O` [1-Carbamoyl-3-[4-(2-methyl-imidazo[4,5-c]pyridin-1-ylmethyl)-benzoyl]-1H-indole-4-carboxylic acid methyl ester], which Ki is on record?
A: 1.5 nM

Q: Which Ki does the source give for `COC(=O)c1cccc2c1c(C(=O)c1ccc(Cn3c(C)nc4cnccc43)cc1)cn2CC(=O)N(C)C` [1-Dimethylcarbamoylmethyl-3-[4-(2-methyl-imidazo[4,5-c]pyridin-1-ylmethyl)-benzoyl]-1H-indole-4-carboxylic acid methyl ester] here?
A: 4.4 nM

Q: With `Cc1[nH]c2ccccc2c1C(=O)c1ccc(Cn2c(C)nc3cnccc32)cc1` [[4-(2-Methyl-imidazo[4,5-c]pyridin-1-ylmethyl)-phenyl]-(2-methyl-1H-indol-3-yl)-methanone] as the compound, how does the Ki read?
A: 48 nM

Q: For `C#Cc1cccc2c1c(C(=O)c1ccc(Cn3c(C)nc4cnccc43)cc1)cn2C(=O)N(C)C` [4-Ethynyl-3-[4-(2-methyl-imidazo[4,5-c]pyridin-1-ylmethyl)-benzoyl]-indole-1-carboxylic acid dimethylamide], which Ki is on record?
A: 1.3 nM

Q: With `COC(=O)c1cccc2c1c(C(=O)c1ccc(Cn3c(C)nc4c(C)nc(C)cc43)cc1)cn2C(=O)N(C)C` [1-Dimethylcarbamoyl-3-[4-(2,4,6-trimethyl-imidazo[4,5-c]pyridin-1-ylmethyl)-benzoyl]-1H-indole-4-carboxylic acid methyl ester] as the compound, how does the Ki read?
A: 120 nM

Q: With `CCOCCn1cc(C(=O)c2ccc(Cn3c(C)nc4cnccc43)cc2)c2c(C(=O)OC)cccc21` [1-(2-Ethoxy-ethyl)-3-[4-(2-methyl-imidazo[4,5-c]pyridin-1-ylmethyl)-benzoyl]-1H-indole-4-carboxylic acid methyl ester] as the compound, how does the Ki read?
A: 1.1 nM

Q: Which Ki does the source give for `COC(=O)c1cccc2c1c(C(=O)CCCCn1c(C)nc3cnccc31)cn2C(=O)N(C)C` [1-Dimethylcarbamoyl-3-[5-(2-methyl-imidazo[4,5-c]pyridin-1-yl)-pentanoyl]-1H-indole-4-carboxylic acid methyl ester] here?
A: 11 nM

Q: Which Ki does the source give for `COC(=O)c1cccc2c1c(C(=O)c1ccc(Cn3c(C)nc4ccccc43)cc1)cn2C(=O)N(C)C` [1-Dimethylcarbamoyl-3-[4-(2-methyl-benzoimidazol-1-ylmethyl)-benzoyl]-1H-indole-4-carboxylic acid methyl ester] here?
A: 0.92 nM

Q: Which Ki does the source give for `Cc1cccc2c1c(C(=O)c1ccc(Cn3c(C)nc4cnccc43)cc1)cn2C(=O)N(C)C` [4-Methyl-3-[4-(2-methyl-imidazo[4,5-c]pyridin-1-ylmethyl)-benzoyl]-indole-1-carboxylic acid dimethylamide] here?
A: 0.82 nM

Q: For `Cc1nc2cnccc2n1Cc1ccc(C(=O)c2cn(C(=O)N(C)C)c3cccc(C(=O)O)c23)cc1` [1-Dimethylcarbamoyl-3-[4-(2-methyl-imidazo[4,5-c]pyridin-1-ylmethyl)-benzoyl]-1H-indole-4-carboxylic acid], which Ki is on record?
A: 14 nM

Q: Which Ki does the source give for `COC(=O)c1cc(-c2ccc(F)cc2)cc2c1c(C(=O)c1ccc(Cn3c(C)nc4cnccc43)cc1)cn2C(=O)N(C)C` [1-Dimethylcarbamoyl-6-(4-fluoro-phenyl)-3-[4-(2-methyl-imidazo[4,5-c]pyridin-1-ylmethyl)-benzoyl]-1H-indole-4-carboxylic acid methyl ester] here?
A: 0.15 nM

Q: Which Ki does the source give for `Cc1nc2cnccc2n1Cc1ccc(C(=O)c2c[nH]c3cc(-c4ccc(F)cc4)ccc23)cc1` [[6-(4-Fluoro-phenyl)-1H-indol-3-yl]-[4-(2-methyl-imidazo[4,5-c]pyridin-1-ylmethyl)-phenyl]-methanone] here?
A: 75 nM

Q: With `COC(=O)c1cc(C#Cc2ccccc2)cc2c1c(C(=O)c1ccc(Cn3c(C)nc4cnccc43)cc1)cn2C(=O)N(C)C` [1-Dimethylcarbamoyl-3-[4-(2-methyl-imidazo[4,5-c]pyridin-1-ylmethyl)-benzoyl]-6-phenylethynyl-1H-indole-4-carboxylic acid methyl ester] as the compound, how does the Ki read?
A: 0.95 nM

Q: For `Cc1nc2cnccc2n1CC(=O)c1cn(C(=O)N(C)C)c2cc(-c3ccc(F)cc3)ccc12` [6-(4-Fluoro-phenyl)-3-[2-(2-methyl-imidazo[4,5-c]pyridin-1-yl)-acetyl]-indole-1-carboxylic acid dimethylamide], which Ki is on record?
A: > 1000 nM
